For 13 molecules, IC50 results are on record in US12172995B2, “Substituted indole and indazole compounds” (BRISTOL-MYERS SQUIBB COMPANY, priority 2018, dated 2024).

What all share (assay type): cell-based
The target of one test is T1, human TLR7 (Homo sapiens, UniProt Q9NYK1).
T1 construct: host or cells: HEK-Blue cells
T1 sequence (Q9NYK1 27-1049): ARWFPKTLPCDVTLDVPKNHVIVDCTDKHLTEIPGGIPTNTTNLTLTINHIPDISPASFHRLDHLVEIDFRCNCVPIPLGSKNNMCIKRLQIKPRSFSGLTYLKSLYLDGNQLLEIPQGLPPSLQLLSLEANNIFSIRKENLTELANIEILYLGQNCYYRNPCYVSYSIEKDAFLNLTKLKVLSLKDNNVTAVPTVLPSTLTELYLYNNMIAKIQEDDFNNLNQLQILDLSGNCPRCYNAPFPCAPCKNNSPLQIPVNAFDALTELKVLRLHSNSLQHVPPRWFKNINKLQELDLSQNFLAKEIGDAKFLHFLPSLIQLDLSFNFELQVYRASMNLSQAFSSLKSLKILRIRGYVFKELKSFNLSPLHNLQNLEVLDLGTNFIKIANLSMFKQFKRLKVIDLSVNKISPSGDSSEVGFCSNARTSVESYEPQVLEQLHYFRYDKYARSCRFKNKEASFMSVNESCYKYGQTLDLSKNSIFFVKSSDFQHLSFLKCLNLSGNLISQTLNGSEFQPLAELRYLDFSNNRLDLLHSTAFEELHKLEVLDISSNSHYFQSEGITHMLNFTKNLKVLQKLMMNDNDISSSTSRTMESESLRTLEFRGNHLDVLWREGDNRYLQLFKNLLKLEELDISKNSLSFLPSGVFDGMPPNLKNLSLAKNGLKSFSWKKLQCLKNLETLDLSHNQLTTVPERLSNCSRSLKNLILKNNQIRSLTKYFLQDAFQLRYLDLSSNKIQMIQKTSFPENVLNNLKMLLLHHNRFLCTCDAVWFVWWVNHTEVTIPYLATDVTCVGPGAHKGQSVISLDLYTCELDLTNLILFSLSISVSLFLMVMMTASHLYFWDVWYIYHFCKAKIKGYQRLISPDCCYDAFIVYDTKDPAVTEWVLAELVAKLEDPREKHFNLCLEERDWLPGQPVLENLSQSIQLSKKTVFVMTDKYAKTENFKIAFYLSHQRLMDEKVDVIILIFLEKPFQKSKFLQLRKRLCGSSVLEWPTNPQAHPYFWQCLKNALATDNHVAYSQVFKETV
The experiment in a line: TLR7 inhibition reporter assay (HEK-Blue SEAP). The note with it: HEK-Blue cells overexpressing human TLR7, stimulated with gardiquimod 7.5 μM, 22 hour incubation. In short, it runs like this: (§1)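 HEK-Blue cells overexpressing the receptor, with an NF-κB/AP-1-driven SEAP reporter, were pre-treated with compound (0.05 nM to 50 μM) for 30 min at room temperature. Stimulation used gardiquimod 7.5 μM (TLR7), R848 15.9 μM (TLR8) or ODN2006 5 nM (TLR9), followed by 22 h at 37 °C.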

The target in the next test is T2, human TLR8 (Homo sapiens, UniProt Q9NR97).
T2 construct: host or cells: HEK-Blue cells
T2 sequence (Q9NR97 27-1041): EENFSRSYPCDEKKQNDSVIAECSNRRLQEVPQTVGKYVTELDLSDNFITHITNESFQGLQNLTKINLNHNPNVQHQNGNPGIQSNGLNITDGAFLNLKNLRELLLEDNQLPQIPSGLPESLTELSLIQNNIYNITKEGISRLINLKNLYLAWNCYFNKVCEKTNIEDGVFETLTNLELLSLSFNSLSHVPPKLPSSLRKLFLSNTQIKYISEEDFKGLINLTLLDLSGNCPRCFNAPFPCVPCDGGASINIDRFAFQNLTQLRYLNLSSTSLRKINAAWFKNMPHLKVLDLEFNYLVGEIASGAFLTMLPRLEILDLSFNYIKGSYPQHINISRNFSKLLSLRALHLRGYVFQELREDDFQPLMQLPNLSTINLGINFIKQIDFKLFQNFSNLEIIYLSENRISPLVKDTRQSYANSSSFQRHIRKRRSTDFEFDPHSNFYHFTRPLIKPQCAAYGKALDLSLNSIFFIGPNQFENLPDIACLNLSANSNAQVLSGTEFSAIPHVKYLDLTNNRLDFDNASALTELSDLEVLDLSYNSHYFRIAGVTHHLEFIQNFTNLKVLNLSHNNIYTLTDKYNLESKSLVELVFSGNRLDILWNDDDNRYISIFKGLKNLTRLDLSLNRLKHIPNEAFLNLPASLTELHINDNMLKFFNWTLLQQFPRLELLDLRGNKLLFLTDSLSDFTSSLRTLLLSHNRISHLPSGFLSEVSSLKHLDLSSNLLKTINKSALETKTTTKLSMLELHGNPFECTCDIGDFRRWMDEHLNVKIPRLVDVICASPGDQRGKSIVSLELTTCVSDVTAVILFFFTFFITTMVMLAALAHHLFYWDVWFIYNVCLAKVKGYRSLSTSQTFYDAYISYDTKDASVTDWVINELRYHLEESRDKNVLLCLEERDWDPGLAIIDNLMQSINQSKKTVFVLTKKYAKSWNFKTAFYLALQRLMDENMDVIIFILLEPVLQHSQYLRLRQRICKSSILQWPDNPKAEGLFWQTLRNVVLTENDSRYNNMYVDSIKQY
The experiment in a line: TLR8 inhibition reporter assay (HEK-Blue SEAP). The note with it: HEK-Blue cells overexpressing human TLR8, stimulated with R848 15.9 μM, 22 hour incubation. In outline:
as §1
A general note: A reporter such as luciferase makes a cellular process visible.

Another test has as its target T3, human TLR9 (Homo sapiens, UniProt Q9NR96).
T3 construct: host or cells: HEK-Blue cells
T3 sequence (Q9NR96 26-1032): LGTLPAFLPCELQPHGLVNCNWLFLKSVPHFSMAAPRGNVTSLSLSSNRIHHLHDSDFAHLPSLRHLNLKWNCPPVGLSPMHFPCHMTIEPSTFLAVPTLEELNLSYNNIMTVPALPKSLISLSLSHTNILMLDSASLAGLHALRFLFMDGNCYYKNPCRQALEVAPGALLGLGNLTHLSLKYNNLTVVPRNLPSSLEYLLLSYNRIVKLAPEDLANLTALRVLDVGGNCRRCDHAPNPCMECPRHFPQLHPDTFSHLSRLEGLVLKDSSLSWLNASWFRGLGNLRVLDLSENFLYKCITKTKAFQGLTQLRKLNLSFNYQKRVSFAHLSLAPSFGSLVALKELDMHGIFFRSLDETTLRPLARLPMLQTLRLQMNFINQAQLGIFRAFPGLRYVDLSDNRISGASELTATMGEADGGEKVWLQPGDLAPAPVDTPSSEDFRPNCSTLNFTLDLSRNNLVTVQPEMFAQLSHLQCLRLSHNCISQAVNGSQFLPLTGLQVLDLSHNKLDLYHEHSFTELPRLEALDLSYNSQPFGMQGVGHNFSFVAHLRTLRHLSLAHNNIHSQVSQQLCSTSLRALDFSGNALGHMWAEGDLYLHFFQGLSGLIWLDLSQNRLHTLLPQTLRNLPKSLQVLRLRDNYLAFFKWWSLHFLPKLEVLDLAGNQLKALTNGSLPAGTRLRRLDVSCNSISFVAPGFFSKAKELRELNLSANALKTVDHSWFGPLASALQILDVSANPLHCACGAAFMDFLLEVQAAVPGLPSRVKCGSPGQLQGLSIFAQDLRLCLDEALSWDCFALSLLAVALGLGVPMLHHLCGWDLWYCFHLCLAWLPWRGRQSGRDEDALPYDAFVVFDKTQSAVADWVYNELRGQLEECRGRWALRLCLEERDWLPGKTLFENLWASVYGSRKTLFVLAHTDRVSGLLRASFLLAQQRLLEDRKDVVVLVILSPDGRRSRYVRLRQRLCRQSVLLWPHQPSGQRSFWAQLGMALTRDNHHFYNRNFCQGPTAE
Put plainly: TLR9 inhibition reporter assay (HEK-Blue SEAP). The note with it: HEK-Blue cells overexpressing human TLR9, stimulated with ODN2006 5 nM, 22 hour incubation. In short, it runs like this: as §1

As to `Cc1cc(-c2cc(C)c3ncnn3c2)cc2[nH]nc(C3CCN(CC(C)(C)O)CC3)c12` [Example 77, 2-methyl-1-(4-(4-methyl-6-(8-methyl-[1,2,4]triazolo[1,5-a]pyridin-6-yl)-1H-indazol-3-yl)piperidin-1-yl)propan-2-ol], the IC50 against human TLR7 was found to be 11.1 nM; against human TLR8, 10.9 nM; against human TLR9, 2190 nM.

In the case of `Cc1cc(-c2cc(C)c3ncnn3c2)cc2[nH]nc(C3CCN(C4CCOCC4)CC3)c12` [Example 78, 8-methyl-6-(4-methyl-3-(1-(tetrahydro-2H-pyran-4-yl)piperidin-4-yl)-1H-indazol-6-yl)-[1,2,4]triazolo[1,5-a]pyridine], the IC50 at human TLR7 was 92.2 nM; against human TLR8, 252 nM; at human TLR9, 24500 nM.

`Cc1cc(-c2cc(C)c3ncnn3c2)cc2[nH]nc(C3CCN(C)CC3)c12` [Example 79, 8-methyl-6-(4-methyl-3-(1-methylpiperidin-4-yl)-1H-indazol-6-yl)-[1,2,4]triazolo[1,5-a]pyridine]: the IC50 came out at 10.3 nM against human TLR7, 53.8 nM on human TLR8 and 6050 nM against human TLR9.

Regarding `Cc1cc(-c2cc(C)c3ncnn3c2)cc2[nH]nc(C3CCC(N(C)C)CC3)c12` (stereo not drawn) [Example 80, N,N-dimethyl-4-(4-methyl-6-(8-methyl-[1,2,4]triazolo[1,5-a]pyridin-6-yl)-1H-indazol-3-yl) cyclohexan-1-amine], the IC50 on human TLR7 is 3.8 nM; on human TLR8 it was 2.5 nM; on human TLR9 it was 2840 nM.

In the case of `Cc1cc(-c2cc(C)c3ncnn3c2)cc2[nH]nc(C3CCC(N(C)C)CC3)c12` (stereo not drawn) [Example 81, N,N-dimethyl-4-(4-methyl-6-(8-methyl-[1,2,4]triazolo[1,5-a]pyridin-6-yl)-1H-indazol-3-yl)cyclohexan-1-amine], the IC50 against human TLR7 turned out to be 1.3 nM; against human TLR8, 5.3 nM; on human TLR9, 1830 nM.

For the molecule `CCc1cc2c(C3CCNCC3)n[nH]c2cc1-c1cc(C)c2ncnn2c1` [Example 82, 6-(5-ethyl-3-(piperidin-4-yl)-1H-indazol-6-yl)-8-methyl-[1,2,4]triazolo[1,5-a]pyridine], the IC50 was determined as 1.6 nM on human TLR7, 0.4 nM at human TLR8 and 2200 nM at human TLR9.

With `Cc1cc2c(C3CCNCC3)n[nH]c2cc1-c1cc(C)c2ncnn2c1C` [Example 83, 5,8-dimethyl-6-(5-methyl-3-(piperidin-4-yl)-1H-indazol-6-yl)-[1,2,4]triazolo[1,5-a]pyridine], the figures for the IC50 against human TLR7, against human TLR8 and against human TLR9 were 45 nM, 5.5 nM and 8010 nM, respectively.

Consider `Cc1cc2c(C3CCNCC3)n[nH]c2cc1-c1cc(C#N)c2ncnn2c1` [Example 84, 6-(5-methyl-3-(piperidin-4-yl)-1H-indazol-6-yl)-[1,2,4]triazolo[1,5-a]pyridine-8-carbonitrile], for which the IC50 against human TLR7 was 33.4 nM; on human TLR8 it was 15.7 nM; against human TLR9, 5610 nM.

For the molecule `Cc1cc2c(C3CCNCC3)n[nH]c2cc1-c1cc(-c2cncnc2)c2ncnn2c1` [Example 85, 6-(5-methyl-3-(piperidin-4-yl)-1H-indazol-6-yl)-8-(pyrimidin-5-yl)-[1,2,4]triazolo[1,5-a]pyridine], the IC50 against human TLR7 worked out at 33 nM; on human TLR8 it was 1.5 nM; against human TLR9, 3940 nM.

Turning to `COc1cc(-c2cc(C)c3ncnn3c2)cc2[nH]nc(C3CCNCC3)c12` [Example 86, 6-(4-methoxy-3-(piperidin-4-yl)-1H-indazol-6-yl)-8-methyl-[1,2,4]triazolo[1,5-a]pyridine], the IC50 turned out to be 5.8 nM against human TLR7, 21.8 nM on human TLR8 and 1290 nM against human TLR9.

Turning to `CCc1cc2c(C3CCN(C(=O)CN(C)C)CC3)n[nH]c2cc1-c1cc(C)c2ncnn2c1` [Example 87, 2-(dimethylamino)-1-(4-(5-ethyl-6-(8-methyl-[1,2,4]triazolo[1,5-a]pyridin-6-yl)-1H-indazol-3-yl)piperidin-1-yl)ethan-1-one], the IC50 against human TLR7 was found to be 6.3 nM; against human TLR8 it was 0.6 nM; at human TLR9, 11600 nM.

With `CCc1cc2c(C3CCN(C4CCOCC4)CC3)n[nH]c2cc1-c1cc(C)c2ncnn2c1` [Example 88, 6-(5-ethyl-3-(1-(tetrahydro-2H-pyran-4-yl)piperidin-4-yl)-1H-indazol-6-yl)-8-methyl-[1,2,4]triazolo[1,5-a]pyridine], the IC50 at human TLR7 worked out at 3.7 nM; against human TLR8 it was 0.2 nM; on human TLR9, 14200 nM.

On to `CCc1cc2c(C3CCN(C(C)C)CC3)n[nH]c2cc1-c1cc(C)c2ncnn2c1` [Example 90, 6-(5-ethyl-3-(1-isopropylpiperidin-4-yl)-1H-indazol-6-yl)-8-methyl-[1,2,4]triazolo[1,5-a]pyridine], for which the figures for the IC50 against human TLR7, on human TLR8 and against human TLR9 were 2.6 nM, 0.1 nM and 7940 nM, respectively.

As a reminder, the IC50 is the concentration at which inhibition is half-maximal. Higher therefore signals weaker potency in that assay.
